The source of these data is patent publication US20240181125A1, “COMPOSITIONS AND METHODS FOR SCARLESS WOUND HEALING IN DIABETES” (Washington University, priority 2022, published 2024).

Experiment [1] relates to THP-1-derived CD86+M1 macrophages. Briefly: mRNA expression (RT-PCR), M1 macrophages. The class given is cell-based, human. To be noted: high glucose and TGFβ1. As for the experimental part:
Macrophages were derived from THP-1, a human monocytic cell line (ATCC). THP-1 cells were treated with 100 ng/ml phorbol 12-myristate 13-acetate (PMA, Millipore-Sigma, P1585) for 48 hours, followed by 24 hours in RPMI 1640 medium (ATCC) with 10% FBS and 1% P/S. To induce differentiation into M1 macrophages, the cells were treated with 100 pg/mL lipopolysaccharide (LPS, Millipore-Sigma) and 20 ng/ml interferon-gamma (IFN-γ, Millipore-Sigma) for 48 hours.
To determine the mRNA expression of the cells (HDFs, HaCaTs, and HAECs) treated with TGFβ1 (10 ng/ml) or TGFβ1 (10 ng/ml)/PTβR2I (10 μg/mL) under high glucose conditions, RNA was extracted using Trizol (Invitrogen) and reverse transcribed using a cDNA synthesis kit (Applied Biosystems). Gene expression was performed by real-time RT-PCR, using Maxima SYBR Green/Fluorescein Master Mix (Thermofisher) and selected primer pairs, shown in Table 1 below. β-actin served as the housekeeping gene. The ΔΔCt method was used for data analysis.

The subject of experiment [2] is TGFβ1/p38 pathway. Briefly: Immunoblotting of p-p38 in HDFs. The format is cell-based, human. As for the experimental part:
For in vitro tests, protein lysates were collected from HDFs. Pre-cooled cell scrapers were used to detach the cells, and the cells were re-suspended in RIPA lysis buffer with the inhibitor cocktail. For in vivo tests, wound skin tissues were washed three times with pre-cooled DPBS, dissected into small pieces, and re-suspended in RIPA lysis buffer containing protease and phosphatase inhibitors. Homogenization was then performed thereafter with an ultrasonic processor (Cole Parmer). After centrifugation at 12,000 g for 20 min, the supernatants were collected, and protein concentrations were measured using a Bradford protein assay kit (Bio-rad).
The protein samples were separated by 10% Mini-PROTEAN TGX stain-free precast gels (Bio-rad) and transferred onto an immune-blot PVDF membrane. The blots were washed three times with DPBS containing 0.1% Tween 20 (PBST), blocked with 5% milk powder in PBST buffer for 40 min, and incubated with primary antibodies at specific dilutions overnight at 4° C. The primary antibodies included rabbit GAPDH antibody (1:5000, Cell signaling), rabbit anti-a-smooth muscle actin (α-SMA) antibody (1:2000, Cell signaling), rabbit anti-phospho-Smad2(Ser465/467)/Smad3 (Ser423/425) (1:500, Cell signaling), and rabbit anti-phospho-p38 (1:500, Cell signaling). The membranes were washed three times with PBST and incubated with horseradish peroxidase (HRP)-conjugated secondary antibodies (1:2500). Immunoblots were then washed with PBST and detected with a WesternBright HRP substrate detection kit (Advansta). The ChemiDoc XPS+system (Bio-rad) was used to image the blots.

In experiment [3] the test system is diabetic wounds of db/db mice. The experiment can be described thus: Example 5 wound dressings on full-thickness excisional diabetic wounds. The format is in vivo. As for the experimental part: After three days post-wound assay on db/db mice, the wounded tissues were collected and lysed. The protein concentrations were quantified by Bradford assay. The samples were tested using a Proteome Profiler Mouse Angiogenesis Array kit (R&D Systems) and a Mouse Cytokine Array kit (R&D Systems). The intensities of the dots on the membranes in the kits were quantified using Image Lab software. Eight-week-old, female db/db mice were used. Carprofen tablets (1/4 tablet per mouse) were given orally 48 hours before surgery and continued for seven days after the surgery as an analgesic. One day before surgery, the blood glucose levels of the mice were tested with a glucometer to confirm they were above 300 mg/dL. The mice were anesthetized by isoflurane inhalation, and the dorsal surface was thoroughly shaved. Then a 5-mm diameter biopsy punch (VWR) was used to create two symmetric full-thickness wounds on the back of each mouse. Next, 100 μL of liquid wound dressing, with or without 50 μg/mL of PTβ[…], was applied topically to the wound sites. The mice were observed every other day, and digital photographs of the wounds, with a ruler at the side, were acquired by a digital camera. Wound sizes were calculated using Image J. For in vitro tests, protein lysates were collected from HDFs. Pre-cooled cell scrapers were used to detach the cells, and the cells were re-suspended in RIPA lysis buffer with the inhibitor cocktail. For in vivo tests, wound skin tissues were washed three times with pre-cooled DPBS, dissected into small pieces, and re-suspended in RIPA lysis buffer containing protease and phosphatase inhibitors. […] After centrifugation at 12,000 g for 20 min, the supernatants were collected, and protein concentrations were measured using a Bradford protein assay kit (Bio-rad). […] Immunoblots were then washed with PBST and detected with a WesternBright HRP substrate detection kit (Advansta). […] The epidermal thickness was calculated from the MTS images in the wounded region. […] Images were acquired by Olympus confocal microscope and analyzed using ImageJ.

Entries after “also recorded” stand apart in the source; their conditions may differ. Bridge positions count the residues as written; N and C are the ends. Peptide text beside a SMILES is read from it. * marks the point of attachment. FITC = O=C1OC2(c3ccc(O)cc3Oc3cc(O)ccc32)c2ccc(NC(=S)*)cc21

As for `CC(C)C[C@@H]1NC(=O)CNC(=O)[C@@H](NC(=O)[C@@H](N)CCC(=O)O)CSSC[C@@H](C(=O)N[C@@H](CCCCNC(=S)Nc2ccc3c(c2)C(=O)OC32c3ccc(O)cc3Oc3cc(O)ccc32)C(=O)O)NC(=O)[C@H](CC(C)C)NC(=O)[C@H](CCCNC(=N)N)NC(=O)[C@H](Cc2c[nH]c3ccccc23)NC(=O)[C@H](C(C)C)NC(=O)[C@H](CCCNC(=N)N)NC(=O)[C@H](CC(=O)O)NC(=O)[C@@H]2CCCN2C(=O)[C@H](CCCNC(=N)N)NC(=O)CNC(=O)[C@H](C(C)C)NC(=O)[C@@H]2CCCN2C(=O)[C@H](CC(C)C)NC1=O` [PTβR2I, ECGLLPVGRPDRVWRLCK-FITC] (H-ECGLLPVGRPDRVWRLCK(FITC)-OH; disulfide 2-17; N-terminus and C-terminus assumed), in experiment [1], the “IL6 mRNA expression” value is “significantly reduced” and the PDGFBB gene expression entry is “significantly enhanced”. In addition, the p-p38 expression result in experiment [2] (high glucose, with TGFβ1) is recorded as “significantly downregulated”. In addition, in experiment [2] (normal glucose), the p-p38 entry is given as “did not downregulate”. Further, the “expression of p-Smad2/3 in wounded skin” value in experiment [3] (day 3) is given as “downregulated”. In addition, in experiment [3] (day 8), the “expressions of p-Smad2/3 and α-SMA in wounded skin” value was “without compromising”. In experiment [3] (days 3 and 8, vs Gel group), the “expression of p-p38 in wounded skin” value is “downregulated; also recorded: continued to downregulate”.
